Test results taken from paper PMC12521441 (Frontiers in Cellular and Infection Microbiology, 2025).

Legend:
ZIKV helicase = target: T1, ZIKV helicase (Zika virus, UniProt Q32ZE1); experiment: Isothermal titration calorimetry, ZIKV helicase; assay type: binding; conditions: ITC, 16°C
T1 sequence (Q32ZE1 1670-2115 limits assumed): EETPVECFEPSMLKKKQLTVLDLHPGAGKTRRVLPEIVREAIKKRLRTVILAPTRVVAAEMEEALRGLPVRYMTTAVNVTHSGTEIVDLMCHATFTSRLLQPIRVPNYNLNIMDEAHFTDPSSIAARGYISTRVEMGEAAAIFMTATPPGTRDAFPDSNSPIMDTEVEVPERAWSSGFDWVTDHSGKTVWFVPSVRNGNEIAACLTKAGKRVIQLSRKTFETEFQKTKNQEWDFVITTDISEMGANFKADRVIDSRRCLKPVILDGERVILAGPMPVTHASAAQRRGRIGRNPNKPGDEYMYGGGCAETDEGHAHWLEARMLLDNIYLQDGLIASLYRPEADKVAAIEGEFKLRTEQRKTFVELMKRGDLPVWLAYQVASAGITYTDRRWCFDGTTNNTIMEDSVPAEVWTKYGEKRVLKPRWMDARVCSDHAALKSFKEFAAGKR

[1] = at higher doses, preclinical models; ref Finnerty et al., 1992; cited from earlier work
JEV helicase = target: T2, JEV helicase (Japanese encephalitis virus, UniProt P32886); experiment: Isothermal titration calorimetry, JEV helicase; assay type: binding; conditions: ITC, 16°C
T2 sequence (P32886 1676-2123 limits assumed): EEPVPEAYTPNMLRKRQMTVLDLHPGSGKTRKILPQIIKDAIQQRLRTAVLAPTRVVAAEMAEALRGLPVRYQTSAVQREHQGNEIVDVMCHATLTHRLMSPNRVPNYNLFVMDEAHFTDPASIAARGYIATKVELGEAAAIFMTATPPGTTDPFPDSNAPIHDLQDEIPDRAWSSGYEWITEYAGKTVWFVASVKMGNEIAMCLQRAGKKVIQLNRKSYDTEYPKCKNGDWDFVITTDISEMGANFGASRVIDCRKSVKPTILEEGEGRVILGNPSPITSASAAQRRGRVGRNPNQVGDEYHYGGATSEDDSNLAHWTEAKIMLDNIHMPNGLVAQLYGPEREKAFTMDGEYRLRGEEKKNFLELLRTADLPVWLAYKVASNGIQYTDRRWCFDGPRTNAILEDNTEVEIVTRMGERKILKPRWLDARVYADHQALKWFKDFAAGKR

[2] = rats, radiolabeled Zafirlukast; ref Zeng et al., 2020; cited from earlier work
TBEV helicase = TBEV helicase (Tick-borne encephalitis virus, UniProt Q01299); experiment: biochemical; assay type: binding
Chain of TBEV helicase (Q01299 1666-2110 limits assumed): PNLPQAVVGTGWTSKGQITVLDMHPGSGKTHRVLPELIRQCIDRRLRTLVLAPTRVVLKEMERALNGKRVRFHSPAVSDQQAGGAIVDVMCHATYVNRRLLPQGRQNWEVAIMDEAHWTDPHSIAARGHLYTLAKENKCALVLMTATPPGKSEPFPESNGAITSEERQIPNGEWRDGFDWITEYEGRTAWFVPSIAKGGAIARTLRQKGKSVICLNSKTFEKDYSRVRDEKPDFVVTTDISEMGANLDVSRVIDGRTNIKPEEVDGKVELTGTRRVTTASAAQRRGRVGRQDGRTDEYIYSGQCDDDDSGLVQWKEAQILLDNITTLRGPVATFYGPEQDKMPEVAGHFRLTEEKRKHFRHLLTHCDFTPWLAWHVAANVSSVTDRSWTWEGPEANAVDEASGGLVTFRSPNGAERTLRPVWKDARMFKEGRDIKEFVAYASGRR

DENV4 helicase = DENV4 helicase (Dengue virus type 4, UniProt Q2YHF0); experiment: Isothermal titration calorimetry, DENV4 helicase; assay type: binding; conditions: ITC
Chain of DENV4 helicase (Q2YHF0 1645-2092 limits assumed): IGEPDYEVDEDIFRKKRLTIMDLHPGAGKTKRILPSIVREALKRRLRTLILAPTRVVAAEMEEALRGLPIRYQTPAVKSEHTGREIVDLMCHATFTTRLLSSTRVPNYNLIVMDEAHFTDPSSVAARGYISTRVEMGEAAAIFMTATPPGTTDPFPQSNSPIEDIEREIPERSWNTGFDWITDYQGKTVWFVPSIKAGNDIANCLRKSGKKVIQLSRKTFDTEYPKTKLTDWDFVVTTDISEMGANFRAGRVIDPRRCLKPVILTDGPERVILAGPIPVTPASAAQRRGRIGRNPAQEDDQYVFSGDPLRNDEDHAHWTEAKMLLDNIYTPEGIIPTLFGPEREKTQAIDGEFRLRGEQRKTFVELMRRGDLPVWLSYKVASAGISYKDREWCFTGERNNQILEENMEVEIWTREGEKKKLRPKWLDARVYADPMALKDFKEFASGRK

YFV helicase = YFV helicase (Yellow fever virus, UniProt P03314); experiment: biochemical; assay type: binding
Chain of YFV helicase (P03314 1660-2107 limits assumed): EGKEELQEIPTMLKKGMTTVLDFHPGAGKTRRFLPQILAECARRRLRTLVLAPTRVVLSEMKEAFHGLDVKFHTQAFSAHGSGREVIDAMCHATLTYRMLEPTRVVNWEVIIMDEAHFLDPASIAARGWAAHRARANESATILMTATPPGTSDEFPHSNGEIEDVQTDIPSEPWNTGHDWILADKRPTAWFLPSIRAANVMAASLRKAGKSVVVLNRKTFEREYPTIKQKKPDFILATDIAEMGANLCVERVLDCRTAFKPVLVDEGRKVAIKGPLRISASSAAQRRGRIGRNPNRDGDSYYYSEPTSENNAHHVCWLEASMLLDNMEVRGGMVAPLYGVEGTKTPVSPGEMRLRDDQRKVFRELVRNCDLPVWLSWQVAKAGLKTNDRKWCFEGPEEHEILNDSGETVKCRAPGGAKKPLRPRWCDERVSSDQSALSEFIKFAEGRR

DENV2 helicase = DENV2 helicase (Dengue virus type 2, UniProt P29990); experiment: Isothermal titration calorimetry, DENV2 helicase; assay type: binding; conditions: ITC, 16°C
Chain of DENV2 helicase (P29990 1646-2093 limits assumed): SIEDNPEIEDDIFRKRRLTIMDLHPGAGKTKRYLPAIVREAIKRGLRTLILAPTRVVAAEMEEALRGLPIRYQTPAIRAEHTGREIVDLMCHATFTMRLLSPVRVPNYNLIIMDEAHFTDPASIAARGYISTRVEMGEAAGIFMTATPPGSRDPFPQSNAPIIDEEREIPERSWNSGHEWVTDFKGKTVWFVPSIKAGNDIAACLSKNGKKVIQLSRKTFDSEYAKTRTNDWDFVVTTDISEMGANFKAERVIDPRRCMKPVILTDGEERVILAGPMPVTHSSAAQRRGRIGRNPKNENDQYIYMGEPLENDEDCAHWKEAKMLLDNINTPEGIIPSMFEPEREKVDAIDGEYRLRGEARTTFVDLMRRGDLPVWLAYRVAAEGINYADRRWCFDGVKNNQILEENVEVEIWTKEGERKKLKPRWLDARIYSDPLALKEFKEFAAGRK

**Q.** Which Kd (ZIKV helicase) does the source give for `COc1cc(C(=O)NS(=O)(=O)c2ccccc2C)ccc1Cc1cn(C)c2ccc(NC(=O)OC3CCCC3)cc12` [Zafirlukast] here?
**A.** The Kd was 13.9 µM.

**Q.** And the Tumor incidence [1]?
**A.** The Tumor incidence was “increased incidence of hepatocellular tumors, histiocytic sarcoma, and bladder cancer”.

**Q.** What about the Kd (JEV helicase) of the same compound?
**A.** Its Kd is 199 µM.

**Q.** What about the “Distribution across the blood-brain barrier” value [2] of the same compound?
**A.** Its value is “minimal distribution across the blood–brain barrier”.

**Q.** And the Kd (TBEV helicase)?
**A.** The Kd was 361 µM.

**Q.** And the Kd (DENV4 helicase)?
**A.** Its Kd is 1.57 µM.

**Q.** And the Kd (YFV helicase)?
**A.** Its Kd is 6.59 µM.

**Q.** What about the Kd (DENV2 helicase) of the same compound?
**A.** The Kd was 2.73 µM.
